Data on 26 substances can be found in publication PMC3514216, “SRC Homology 2 Domain Binding Sites in Insulin, IGF-1 and FGF receptor mediated signaling networks reveal an extensive potential interactome” (Cell Communication and Signaling : CCS, 2012).

The assay has as its system panel of 50 SH2 domains. Briefly: SPOT peptide array probed with each of 50 GST-SH2 domains. Particulars: for SH2 Domains >3X / 2X < SH2 Domains < 3X: SPOT192 peptide array; for SH2 Domains >3X: list of GST-SH2 domains with spot intensity >3X array mean (array-positive); for 2X < SH2 Domains < 3X: list of GST-SH2 domains with spot intensity between 2X and 3X array mean (indeterminate range). It counts as binding. The text has this:
The use of addressable peptide arrays is a reproducible and semi-quantitative approach that has been extensively validated for studying protein interactions with peptide ligands. To investigate connections between SH2 domain proteins and their putative phosphorylated docking sites on cell surface receptors, we developed addressable arrays consisting of 192 phosphotyrosine peptides. This peptide set was assembled using 71 phosphotyrosine peptide motifs corresponding to all of the cytoplasmic tyrosine residues within the FGF receptors (FGFR1-4), insulin receptor (InsR) and IGF-1 receptor (IGF-1R) (Figure 1A). Activation of these receptors results in the phosphorylation of associated scaffold proteins, and so 75 phosphotyrosine peptides corresponding to a comprehensive list of tyrosine residues within insulin receptor substrates (IRS-1 and IRS-2) and fibroblast receptor substrates (FRS-2 and FRS-3) were included. In addition, 33 phosphotyrosine peptides were incorporated from the downstream signaling proteins PLC-γ1, p130Cas (BCAR1) and p62DOK1. […] These control peptides provide a reference and establish the empirical cut-off for designated binding interactions (Table 1). No discrimination was made against peptides on the basis of reported phosphorylation state in order to examine a diverse and unbiased set of motifs. The resulting set of 192 phosphotyrosine peptides and their corresponding position in the proteins of origin is noted in Additional file 1: Table S1. Addressable arrays were synthesized as membrane-bound 11-mer peptides using the SPOT synthesis technique. While the majority of SH2 domains recognize residues C-terminal to the phosphotyrosine in their cognate peptide ligands, additional contacts between SH2 domains and residues N-terminal to the phosphotyrosine are observed for the SH2 domain of Sh2d1a (SAP) and cannot be ruled out in other cases. Peptides were synthesized with six flanking residues C-terminal to the phosphotyrosine and four residues N-terminal to the phosphotyrosine.
To assess the potential network of SH2 domain interactions we selected 50 SH2 domains representing 28 of the 38 families of SH2 domains (Figure 1B) all of which we have previously shown can be expressed and purified. These include a number of extensively studied SH2 domains (Src, Grb2, PLCγ), as well as a number of less studied SH2 domains from proteins such as Shd, She, Shf, Slnk (Sh2d6), Sh2d1a (SAP), Sh2d1b (Eat-2), and Brdg1. To address potential variability in specificity within families we employed all members from the SHB, CRK, GRB2, SRC and ABL families (families are indicated with complete Capitalized lettering).
SH2 domains were arrayed as GST fusion proteins and detected using anti-GST primary antibodies and near-infrared labeled secondary antibodies. In an effort to present a dataset with minimal false positives, we chose an empirical cutoff based on the array average across all peptide spots to classify interactions (Figure 1A). In cases where the intensity of the signal for an individual SH2-domain binding event exceeded the mean intensity of all the peptides on the membrane by three-fold were scored as “array positives” [22]. Non-binding was judged in cases where the intensity of a spot was less than the mean intensity of all spots on the membrane and these were scored as “array negatives”. Peptides with signal intensities between 1X and 3X mean were scored as “indeterminate” and ascribed as neither array positive binding interactions nor array-negative non-binders. […] This signature may be indicative of promiscuity differences between phosphopeptides or there may be a subset of peptides which interact in a nonspecific fashion with either the GST fusion tag or one of the antibodies used for detection, resulting in false positives. […]

Turning to NSALpYSQVQKS [H24], the “SH2 Domains >3X” value is on record as “BCAR3, BRDG1, CRK, CRKL, PTPN11_C, SH2D1B, SHC1, SHIP1” and the “2X < SH2 Domains < 3X” value is on record as “ABL2, BMX, FER, PTPN11_N, RIN1”.
Turning to PCSVpYVPDEWE [A20], the “SH2 Domains >3X” value is reported as “BMX, DAPP1, ITK, PLCG2_N, PLCG2_C, RASA1_N, RASA1_C, SH2D1B, VAV1” and the “2X < SH2 Domains < 3X” value is given as “FGR, FYN, MATK, SH2D2A, SHC1”.
Turning to PFEQpYSPGGQD [F12], the “2X < SH2 Domains < 3X” value is “ZAP70_N”.
In the case of PGLDpYSFDTCK [F09], the “SH2 Domains >3X” value is “ABL1, CRK, CRKL, HCK, GRB7, SHIP1, SRC, ZAP70_N” and the “2X < SH2 Domains < 3X” value is given as “FGR, SHC1”.
PGLEpYCYNPSH [E09]: the “SH2 Domains >3X” value is recorded as “ABL1, GRB7, ZAP70_N”.
With PGMEpYSYDINR [E21], the “SH2 Domains >3X” value was “BRDG1, GRB7” and the “2X < SH2 Domains < 3X” value is recorded as “LCK, RASA1_N”.
As for PKCTpYENVTGG [G13], the “SH2 Domains >3X” value is “GADS, GRB2, GRB7, SH3BP2” and the “2X < SH2 Domains < 3X” value is listed as “GRAP, MIST”.
Consider PLSDpYMNLDFS [D24], for which the “SH2 Domains >3X” value is given as “GADS, GRAP, GRB2, RASA1_N, SYK_C” and the “2X < SH2 Domains < 3X” value is “ABL1, GRB7, PI3K1_C, PLCG2_N, RASA1_C”.
With PMHNpYVNTENV [G07], the “SH2 Domains >3X” value was “GADS, GRAP, GRB2, SH3BP2” and the “2X < SH2 Domains < 3X” value is given as “PI3K1_C, VAV1”.
On to PNGDpYLNVSPS [D21], for which the “SH2 Domains >3X” value is listed as “GADS, GRAP, GRB2, GRB7, VAV1” and the “2X < SH2 Domains < 3X” value is on record as “HCK, PI3K1_N, SH2D1B, SHIP1”.
Regarding PNGHpYILSRGG [C02], the “SH2 Domains >3X” value is listed as “BRDG1, CRK, DAPP1, MIST, PTPN11_C, RASA1_C, SHB, SHF, SHD, SYK_C, TENC1” and the “2X < SH2 Domains < 3X” value was “BCAR3, BMX, FER, PLCG2_N, Sh2b, SHE”.
In the case of “PPALpYAEPLDS [11-mer phosphotyrosine peptide, p62DOK1 (Y296)]”, under “SH2 domains with intensity >3X array mean, GST-SH2 0.25 μM, 1 mM DTT”, the “Other SH2 domains bound (additional array-positive SH2 domains)” value is given as “Abl1, Nck1, Vav1, Zap70_N”.
Turning to PPALpYAEPLDS [H15], the “SH2 Domains >3X” value is reported as “ABL1, ITK, NCK1, RASA1_N, RASA1_C, VAV1, ZAP70_N” and the “2X < SH2 Domains < 3X” value is recorded as “ABL2”.
For the substance PQDIpYDVPPVR [H11], the “SH2 Domains >3X” value is “CRK, CRKL, NCK1, SHIP1, ZAP70_N” and the “2X < SH2 Domains < 3X” value is “FGR, FYN, LCK, LYN”.
As to PQGLpYDLPREP [H20], the “SH2 Domains >3X” value is “ABL1, CRK, CRKL, NCK1, ZAP70_N” and the “2X < SH2 Domains < 3X” value is “HCK”.
Take PRLEpYYESEKK [C24]: the “2X < SH2 Domains < 3X” value was “ZAP70_N”.
Consider PRQSpYVDTSPA [C20], for which the “SH2 Domains >3X” value was “PI3K1_C”.
In the case of PSDApYYGPEDP [C10], the “SH2 Domains >3X” value is on record as “DAPP1, PLCG2_N, PLCG2_C” and the “2X < SH2 Domains < 3X” value is reported as “BLK, BMX, LCK, RASA1_N”.
Turning to PTYFpYVTDYLD [A15], the “SH2 Domains >3X” value is “BCAR3, BRK, ITK, MATK, PLCG2_N, PLCG2_C, RASA1_N, SH2D2A, SLNK, SYK_C, VAV1” and the “2X < SH2 Domains < 3X” value was “DAPP1, RIN1, SH2D1B, TENC1”.
In the case of PVAPpYWTSPEK [E01], the “2X < SH2 Domains < 3X” value was “ABL1”.
Consider PVFFpYVQAKTG [B09], for which the “SH2 Domains >3X” value was “BRDG1, MIST, Sh2b, SYK_C” and the “2X < SH2 Domains < 3X” value is on record as “BCAR3, RASA1_C, SHF, TENC1”.
On to PVLSpYYSLPRS [C12], for which the “SH2 Domains >3X” value is on record as “CRK, CRKL, Sh2b, SYK_C” and the “2X < SH2 Domains < 3X” value is on record as “BRDG1, SHF”.
QDSLpYSDPLDS [H16]: the “SH2 Domains >3X” value is reported as “ABL1, FYN, HCK, LCK, LYN, NCK1, RASA1_C, SRC, ZAP70_N” and the “2X < SH2 Domains < 3X” value is given as “BLK, FGR, SHIP1”.
Turning to QDSWpYQALLQL [B22], the “SH2 Domains >3X” value is on record as “ABL2, BCAR3, CRK, MATK, SH2D2A, SYK_C, TENC1, VAV1” and the “2X < SH2 Domains < 3X” value was “BMX, GADS, RIN1, Sh2b, SHD”.
Take QEGWpYRALTDL [D05]: the “SH2 Domains >3X” value is recorded as “CRK” and the “2X < SH2 Domains < 3X” value is given as “ABL1, ABL2, TENC1”.
For the substance QGYVpYEAAQPE [H09], the “SH2 Domains >3X” value is “VAV1” and the “2X < SH2 Domains < 3X” value is on record as “ZAP70_N”.
